Test results taken from PubChem BioAssay AID248 (DTP/NCI, 2004).
“And” between values parts separate entries of the source, which are not always exact repeats. Identical values can stand only once. Inconclusive results and toxic doses are left out. Rule as the data show it: active = T/C of 150% or more; inactive = T/C below 125%.

Test system: L1210 leukemia ip in BDF1 mice, survival T/C
Assay: NCI In Vivo Anticancer Drug Screen. Data for tumor model L1210 Leukemia (intraperitoneal) in B6D2F1 (BDF1) mice
Settings: endpoint: mean survival time, higher = longer survival
Method in brief: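 In this screen, tumor-bearing mice given compound are compared to those given vehicle, and their survival values are reported as a treated-to-control quotient.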

[1] = dose: 12.5 mg/kg/injection, schedule: Q01DX009 (ip), vehicle: Klucel (hydroxypropylcellulose) (HPC)
[2] = dose: 100.0 mg/kg/injection, schedule: Q04DX003 (ip), vehicle: Klucel (hydroxypropylcellulose) (HPC)
[3] = dose: 200.0 mg/kg/injection, schedule: Q04DX003 (ip), vehicle: Klucel (hydroxypropylcellulose) (HPC)
[4] = dose: 100.0 mg/kg/injection, schedule: Q01DX009 (ip), vehicle: Klucel (hydroxypropylcellulose) (HPC)
[5] = dose: 200.0 mg/kg/injection, schedule: Q01DX009 (ip), vehicle: Klucel (hydroxypropylcellulose) (HPC)
[6] = dose: 400.0 mg/kg/injection, schedule: Q01DX009 (ip), vehicle: Klucel (hydroxypropylcellulose) (HPC)
[7] = dose: 400.0 mg/kg/injection, schedule: Q04DX003 (ip), vehicle: Klucel (hydroxypropylcellulose) (HPC)
[8] = dose: 100.0 mg/kg/injection, schedule: Q01DX001 (ip), vehicle: saline
[9] = dose: 200.0 mg/kg/injection, schedule: Q01DX001 (ip), vehicle: saline
[10] = dose: 400.0 mg/kg/injection, schedule: Q01DX001 (ip), vehicle: saline

Measured: T/C

CC(CCC(C)OS(C)(=O)=O)OS(C)(=O)=O (stereo not given)
inactive: dose: 2.0 mg/kg/injection, schedule: Q01DX010 (ip), vehicle: saline 86 % of control and 87 % of control | dose: 3.1 mg/kg/injection, schedule: Q01DX009 (ip), vehicle: Klucel (hydroxypropylcellulose) (HPC) 96 % of control | dose: 4.0 mg/kg/injection, schedule: Q01DX009 (ip), vehicle: saline 97 % of control | dose: 4.0 mg/kg/injection, schedule: Q01DX010 (ip), vehicle: saline 100 % of control | dose: 6.25 mg/kg/injection, schedule: Q01DX009 (ip), vehicle: Klucel (hydroxypropylcellulose) (HPC) 102 % of control and 103 % of control and 101 % of control | dose: 6.25 mg/kg/injection, schedule: Q04DX002 (ip), vehicle: Klucel (hydroxypropylcellulose) (HPC) 96 % of control | dose: 8.0 mg/kg/injection, schedule: Q01DX009 (ip), vehicle: saline 101 % of control | dose: 8.0 mg/kg/injection, schedule: Q01DX010 (ip), vehicle: saline 89 % of control and 90 % of control | [1] 105 % of control [middle of 4 runs] | dose: 12.5 mg/kg/injection, schedule: Q04DX002 (ip), vehicle: Klucel (hydroxypropylcellulose) (HPC) 96 % of control and 100 % of control | dose: 16.0 mg/kg/injection, schedule: Q01DX009 (ip), vehicle: saline 108 % of control | dose: 16.0 mg/kg/injection, schedule: Q01DX010 (ip), vehicle: saline 106 % of control and 114 % of control | dose: 25.0 mg/kg/injection, schedule: Q01DX009 (ip), vehicle: Klucel (hydroxypropylcellulose) (HPC) 102 % of control and 88 % of control and 108 % of control | dose: 25.0 mg/kg/injection, schedule: Q04DX002 (ip), vehicle: Klucel (hydroxypropylcellulose) (HPC) 96 % of control and 93 % of control and 94 % of control | dose: 32.0 mg/kg/injection, schedule: Q01DX009 (ip), vehicle: saline 103 % of control | dose: 50.0 mg/kg/injection, schedule: Q01DX009 (ip), vehicle: Klucel (hydroxypropylcellulose) (HPC) 87 % of control | dose: 50.0 mg/kg/injection, schedule: Q01DX009 (ip), vehicle: saline with Tween-80 91 % of control and 93 % of control | dose: 50.0 mg/kg/injection, schedule: Q04DX002 (ip), vehicle: Klucel (hydroxypropylcellulose) (HPC) 107 % of control | dose: 100.0 mg/kg/injection, schedule: Q01DX009 (ip), vehicle: saline with Tween-80 98 % of control and 97 % of control | dose: 200.0 mg/kg/injection, schedule: Q01DX009 (ip), vehicle: saline with Tween-80 91 % of control and 87 % of control

CC1CC=CCC1COC(OCC1CC=CCC1C)C1CC=CCC1C (stereo not given)
inactive: dose: 100.0 mg/kg/injection, schedule: Q01DX009 (ip), vehicle: other 93 % of control | dose: 100.0 mg/kg/injection, schedule: Q04DX003 (ip), vehicle: other 100 % of control | dose: 200.0 mg/kg/injection, schedule: Q01DX009 (ip), vehicle: other 98 % of control | dose: 200.0 mg/kg/injection, schedule: Q04DX003 (ip), vehicle: other 98 % of control | dose: 400.0 mg/kg/injection, schedule: Q01DX009 (ip), vehicle: other 93 % of control | dose: 400.0 mg/kg/injection, schedule: Q04DX003 (ip), vehicle: other 96 % of control

CCCCC(=O)NC1=CC(=O)c2ccccc2C1=O
inactive: dose: 75.0 mg/kg/injection, schedule: Q01DX001 (ip), vehicle: saline 95 % of control | dose: 150.0 mg/kg/injection, schedule: Q01DX001 (ip), vehicle: saline 91 % of control

CCOC(=O)c1ccnc2ccc(OC)cc12
inactive: dose: 100.0 mg/kg/injection, schedule: Q04DX002 (ip), vehicle: saline with Tween-80 91 % of control | dose: 200.0 mg/kg/injection, schedule: Q04DX002 (ip), vehicle: saline with Tween-80 100 % of control | dose: 400.0 mg/kg/injection, schedule: Q04DX002 (ip), vehicle: saline with Tween-80 104 % of control

CCCCCCCCCCS(=O)(=O)CC(=O)O
inactive: [2] 100 % of control | dose: 100.0 mg/kg/injection, schedule: Q04DX003 (ip), vehicle: saline with Tween-80 100 % of control | [3] 90 % of control | dose: 200.0 mg/kg/injection, schedule: Q04DX003 (ip), vehicle: saline with Tween-80 98 % of control

Cc1ccccc1/C=C1\CC(C)(C)c2ccccc2C1=O
inactive: [4] 105 % of control | [2] 95 % of control | [5] 97 % of control | [3] 95 % of control | [6] 97 % of control | [7] 97 % of control

CC(=O)OCCN1C(=O)c2ccccc2C1=O
inactive: [2] 104 % of control | [3] 117 % of control | [7] 101 % of control

Cc1ncc(CO)c(C2NOCc3nscc32)c1O (stereo not given)
inactive: dose: 3.12 mg/kg/injection, schedule: Q01DX009 (ip), vehicle: Klucel (hydroxypropylcellulose) (HPC) 94 % of control | dose: 3.12 mg/kg/injection, schedule: Q01DX009 (ip), vehicle: other 98 % of control | dose: 6.25 mg/kg/injection, schedule: Q01DX009 (ip), vehicle: other 100 % of control | [1] 89 % of control | dose: 12.5 mg/kg/injection, schedule: Q01DX009 (ip), vehicle: other 107 % of control | dose: 12.5 mg/kg/injection, schedule: Q04DX003 (ip), vehicle: Klucel (hydroxypropylcellulose) (HPC) 92 % of control

CN(C)c1ccc(CC2CCOC2=O)cc1 (stereo not given)
inactive: dose: 50.0 mg/kg/injection, schedule: Q01DX001 (ip), vehicle: carboxymethylcellulose (CMC) 102 % of control | dose: 100.0 mg/kg/injection, schedule: Q01DX001 (ip), vehicle: carboxymethylcellulose (CMC) 96 % of control | dose: 200.0 mg/kg/injection, schedule: Q01DX001 (ip), vehicle: carboxymethylcellulose (CMC) 96 % of control | dose: 400.0 mg/kg/injection, schedule: Q01DX001 (ip), vehicle: carboxymethylcellulose (CMC) 100 % of control

OCC1OC(n2cc(Br)c3c(NO)ncnc32)C(O)C1O (stereo not given)
inactive: dose: 5.0 mg/kg/injection, schedule: Q01DX001 (ip), vehicle: saline 103 % of control | dose: 10.0 mg/kg/injection, schedule: Q01DX001 (ip), vehicle: saline 101 % of control

CC1Cc2cccc3cc4c(ccc5ccccc54)c1c23 (stereo not given)
inactive: dose: 100.0 mg/kg/injection, schedule: Q01DX001 (ip), vehicle: Klucel (hydroxypropylcellulose) (HPC) 98 % of control and 104 % of control | dose: 200.0 mg/kg/injection, schedule: Q01DX001 (ip), vehicle: Klucel (hydroxypropylcellulose) (HPC) 97 % of control and 103 % of control | dose: 400.0 mg/kg/injection, schedule: Q01DX001 (ip), vehicle: Klucel (hydroxypropylcellulose) (HPC) 95 % of control and 110 % of control

CC(N(N=O)c1ccccc1)S(=O)(=O)O (stereo not given)
inactive: [8] 104 % of control | dose: 100.0 mg/kg/injection, schedule: Q01DX009 (ip), vehicle: saline 92 % of control | [9] 96 % of control | dose: 200.0 mg/kg/injection, schedule: Q01DX009 (ip), vehicle: saline 99 % of control | [10] 98 % of control

CC1=CC(C)(C)NC(=S)N1c1ccc(N(C)C)cc1
inactive: dose: 112.0 mg/kg/injection, schedule: Q01DX Z (ip), vehicle: methylcellulose (MC) 101 % of control | dose: 166.0 mg/kg/injection, schedule: Q01DX Z (ip), vehicle: methylcellulose (MC) 96 % of control | dose: 250.0 mg/kg/injection, schedule: Q01DX Z (ip), vehicle: methylcellulose (MC) 94 % of control | dose: 375.0 mg/kg/injection, schedule: Q01DX Z (ip), vehicle: methylcellulose (MC) 96 % of control

CN(Cc1ccccc1Cl)C(=S)NC1CCCCC1
inactive: [4] 92 % of control | [5] 93 % of control | [6] 93 % of control

CC1=NN(C)C(=O)C1
inactive: dose: 50.0 mg/kg/injection, schedule: Q01DX001 (ip), vehicle: saline 103 % of control | [8] 103 % of control | [9] 103 % of control | [10] 103 % of control
